How the values were obtained:
SU-DHL-10 cells = assay: Cell cytotoxicity in SU-DHL-10 cell line (CellTiter-Glo); type: cell-based; conditions: Homo sapiens, SU-DHL10; CellTiter-Glo, 48 h; read-out: SU-DHL-10 EC50
Protocol: Assay (c): Cell Cytotoxicity in SU-DHL-10 Cell Line
Cell Culture: SU-DHL-10 (ATCC CRL-2963) were cultured in RPMI-media (ATCC, 30-2001).
Cultures were maintained by the addition of fresh medium and inoculum of 8.0×10^4 to 2.0×10^5 cells/mL. Subculturing was done when the cell density was between 1.0×10^6 and 2.0×10^6 cells/mL.
Cell seeding: 5000 cells/well were plated in 384-white clear bottom plates (Greiner, 781098) for the assay in 20 μl growth media.
Top dose: 1 mM stocks of each compound was prepared in 100% DMSO and thereafter diluted 333.33 fold in growth media to obtain 3 μM (0.3% DMSO) mid stock of each compound, from which 10 μl was added to assay wells (with 20 μl cells) for a final concentration of 1 μM (0.1% DMSO). For subsequent dose-response: 1 mM stock was diluted 3 fold in DMSO before subjecting to above dilution pattern to obtain final 0.1% DMSO concentration.
Treatment: Cells were incubated with the compounds for 48 h at 37° C. in presence of 5% CO2.
Assay Procedure: The assay plate and its contents were equilibrated at room temperature for approximately 30 minutes. CellTiter-Glo® Reagent was added equal to the volume (1;1) of cell culture medium present in each well. The contents were mixed for 5 minutes on an orbital shaker to induce cell lysis. The plate was allowed to incubate at room temperature for 10 minutes to stabilize luminescent signal. The luminescence was recorded with an integration time of 0.25 seconds in EnVision 2104 Multilabel Plate Reader (Perkin Elmer).
Calculation: % Cytotoxicity was calculated considering 100% cell death in wells treated with 0.1% TritonX.

[1] = system: Plasmodium falciparum 3D7; assay: SYBR Green assay, Plasmodium falciparum strain 3D7; type: cell-based; conditions: P. falciparum strain 3D7, 96 h incubation, read-out: Pf EC50 strain 3D7
Human NMT1 (HsNMT1) = Human NMT1 (HsNMT1) (Homo sapiens, UniProt P30419); assay: biochemical
Sequence of Human NMT1 (HsNMT1) (P30419 whole entry, looked up): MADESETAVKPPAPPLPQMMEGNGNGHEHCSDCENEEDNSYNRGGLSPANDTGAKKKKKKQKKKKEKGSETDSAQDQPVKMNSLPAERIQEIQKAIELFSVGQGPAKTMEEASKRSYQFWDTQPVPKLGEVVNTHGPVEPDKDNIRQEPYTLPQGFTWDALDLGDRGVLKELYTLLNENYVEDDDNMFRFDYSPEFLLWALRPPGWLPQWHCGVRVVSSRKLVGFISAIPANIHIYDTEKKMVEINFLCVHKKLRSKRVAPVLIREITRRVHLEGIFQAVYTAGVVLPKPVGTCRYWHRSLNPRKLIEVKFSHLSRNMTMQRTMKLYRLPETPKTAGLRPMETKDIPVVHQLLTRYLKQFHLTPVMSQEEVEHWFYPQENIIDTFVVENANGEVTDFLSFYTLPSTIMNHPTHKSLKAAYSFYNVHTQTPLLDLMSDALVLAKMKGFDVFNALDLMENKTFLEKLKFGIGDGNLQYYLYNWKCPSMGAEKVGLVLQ

[2] = molecular target: Plasmodium vivax (Pv) NMT (Plasmodium vivax (strain Salvador I), UniProt A5K1A2); assay: biochemical
Sequence of Plasmodium vivax (Pv) NMT (A5K1A2 1-410): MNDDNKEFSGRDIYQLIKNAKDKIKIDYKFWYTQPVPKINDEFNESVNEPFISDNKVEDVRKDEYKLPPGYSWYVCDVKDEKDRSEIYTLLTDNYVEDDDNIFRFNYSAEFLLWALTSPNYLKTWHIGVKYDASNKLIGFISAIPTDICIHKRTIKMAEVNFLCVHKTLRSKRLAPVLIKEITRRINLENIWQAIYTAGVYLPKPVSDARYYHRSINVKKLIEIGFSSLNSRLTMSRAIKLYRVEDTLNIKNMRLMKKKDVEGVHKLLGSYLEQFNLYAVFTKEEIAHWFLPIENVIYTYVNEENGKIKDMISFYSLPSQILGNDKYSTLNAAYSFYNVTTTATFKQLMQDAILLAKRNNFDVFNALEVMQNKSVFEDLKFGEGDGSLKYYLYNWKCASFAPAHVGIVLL

in vitro = conditions: male, Sprague-Dawley, rat, pooled cryopreserved rat hepatocytes, pH 7.4

| EC50 [1] | IC50 (Human NMT1 (HsNMT1)) | half-life at 1 µM (in vitro) | Compound | EC50 (SU-DHL-10 cells) | IC50 [2] |
| --- | --- | --- | --- | --- | --- |
| 100 nM | – | > 3 h | CN1CCN(c2cc(N3CC(C(=O)NC(C)(C)c4cnc5ccccn45)C3)c(F)cn2)CC1 [Example 4, 1-[5-fluoro-2-(4-methylpiperazin-1-yl)pyridin-4-yl]-N-(2-{imidazo[1,2-a]pyridin-3-yl}propan-2-yl)azetidine-3-carboxamide] | – | – |
| 110 nM | – | > 3 h | C[C@@H]1CN(c2ncc(Cl)c(N3CC(C(=O)NC(C)(C)c4cnc5ccccn45)C3)n2)C[C@H](C)N1 [Example 43] | – | – |
| 26 nM | – | – | CC1CNCCN1c1ncc(Cl)c(N2CC(C(=O)N(C)C(C)(C)c3cnc4ccccn34)C2)n1 (stereo not drawn) [Example 50] | 35 nM | – |
| – | 54 nM | – | CN(C(=O)C1CN(c2nc(N3CCNC4(CC4)C3)ncc2Cl)C1)C(C)(C)c1cnc2ccccn12 [Example 130, 1-(5-chloro-2-(4,7-diazaspiro[2.5]octan-7-yl)pyrimidin-4-yl)-N-(2-(imidazo[1,2-a]pyridin-3-yl)propan-2-yl)-N-methylazetidine-3-carboxamide] | 547 nM | – |
| – | 4 nM | – | C[C@@H]1CNCCN1c1ncc(Cl)c(N2CC(C(=O)NC(C)(C)c3cnc4ccccn34)C2)n1 [Example 141, (R)-1-(5-chloro-2-(2-methylpiperazin-1-yl)pyrimidin-4-yl)-N-(2-(Imidazo[1,2-a]pyridin-3-yl)propan-2-yl)azetidine-3-carboxamide] | 378 nM | – |
| – | 178 nM | – | C[C@@H]1CN(C)CCN1c1ncc(Cl)c(N2CC(C(=O)N(C)C(C)(C)c3cnc4ccccn34)C2)n1 [Example 142, (R)-1-(5-chloro-2-(2,4-dimethylpiperazin-1-yl)pyrimidin-4-yl)-N-(2-(imidazo[1,2-a]pyridin-3-yl)propan-2-yl)-N-methylazetidine-3-carboxamide] | 489 nM | – |
| – | 3 nM | – | CC1NCCN(c2ncc(Cl)c(N3CC(C(=O)NC(C)(C)c4cnc5ccccn45)C3)n2)C1C (stereo not drawn) [Example 143, 1-(5-chloro-2-(2,3-dimethylpiperazin-1-yl)pyrimidin-4-yl)-N-(2-(Imidazo[1,2-a]pyridin-3-yl)propan-2-yl)azetidine-3-carboxamide] | 5 nM | – |
| – | 61 nM | – | CN(C(=O)C1CN(c2nc(N3CCNC4CC43)ncc2Cl)C1)C(C)(C)c1cnc2ccccn12 (stereo not drawn) [Example 146, 1-(2-(2,5-diazabicyclo[4.1.0]heptan-2-yl)-5-chloropyrimidin-4-yl)-N-(2-(imidazo[1,2-a]pyridin-3-yl)propan-2-yl)-N-methylazetidine-3-carboxamide] | 597 nM | – |
| – | 8 nM | – | C[C@H]1CN(c2ncc(Cl)c(N3CC(C(=O)NC(C)(C)c4cnc5ccccn45)C3)n2)[C@@H](C)CN1C [Example 152, 1-(5-chloro-2-((2S,5S)-2,4,5-trimethylpiperazin-1-yl)pyrimidin-4-yl)-N-(2-(imidazo[1,2-a]pyridin-3-yl)propan-2-yl)azetidine-3-carboxamide] | 306 nM | – |
| – | 3 nM | – | C[C@@H]1CN(c2ncc(Cl)c(N3CC(C(=O)NC(C)(C)c4cnc5ccccn45)C3)n2)[C@@H](C)CN1 [Example 153, 1-(5-chloro-2-((2S,5R)-2,5-dimethylpiperazin-1-yl)pyrimidin-4-yl)-N-(2-(imidazo[1,2-a]pyridin-3-yl)propan-2-yl)azetidine-3-carboxamide] | 54 nM | – |

Further lines, the molecule ahead of its results:

| Compound | EC50 [1] | IC50 (Human NMT1 (HsNMT1)) | half-life at 1 µM (in vitro) | EC50 (SU-DHL-10 cells) | IC50 [2] |
| --- | --- | --- | --- | --- | --- |
| C[C@@H]1CN(c2ncc(Cl)c(N3CC(C(=O)NC(C)(C)c4cnc5ccccn45)C3)n2)CCN1 [Example 1, 1-{5-chloro-2-[(3R)-3-methylpiperazin-1-y]pyrimidin-4-yl}-N-(2-{imidazo[1,2-a]pyridin-3-yl}propan-2-yl)azetidine-3-carboxamide] | 6.3 nM | 3 nM | – | 367 nM | 6.6 nM |
| CC(C)(NC(=O)C1CN(c2nc(N3CCNCC3)ncc2Cl)C1)c1cnc2ccccn12 [Example 33] | 18 nM | 3.5 nM | – | 878 nM | 6.6 nM |
| CC1CN(c2ncc(Cl)c(N3CC(C(=O)NC(C)(C)c4cnc5ccccn45)C3)n2)C[C@H](C)N1 (stereo partly drawn) [Example 48] | 65 nM | – | – | 795 nM | – |
| CN(C(=O)C1CN(c2nc(N3CC4CCC(C3)N4)ncc2Cl)C1)C(C)(C)c1cnc2ccccn12 [Example 133, 1-(2-(3,8-diazabicyclo[3.2.1]octan-3-yl)-5-chloropyrimidin-4-yl)-N-(2-(imidazo[1,2-a]pyridin-3-yl)propan-2-yl)-N-methylazetidine-3-carboxamide] | – | 62 nM | – | 409 nM | – |
| CC1NCCN(c2ncc(Cl)c(N3CC(C(=O)N(C)C(C)(C)c4cnc5ccccn45)C3)n2)C1C (stereo not drawn) [Example 134, 1-(5-chloro-2-(2,3-dimethylpiperazin-1-yl)pyrimidin-4-yl)-N-(2-(Imidazo[1,2-a]pyridin-3-yl)propan-2-yl)-N-methylazetidine-3-carboxamide] | – | 5 nM | – | 106 nM | – |
| C[C@H]1CNCCN1c1ncc(C(F)(F)F)c(N2CC(C(=O)N(C)C(C)(C)c3cnc4ccccn34)C2)n1 [Example 135, (S)—N-(2-(imidazo[1,2-a]pyridin-3-yl)propan-2-yl)-N-methyl-1-(2-(2-methylpiperazin-1-yl)-5-(trifluoromethyl)pyrimidin-4-yl)azetidine-3-carboxamide] | – | 27 nM | – | 767 nM | – |
| CCN(C(=O)C1CN(c2nc(N3CCNCC3)ncc2Cl)C1)C(C)(C)c1cnc2ccccn12 [Example 136, 1-(5-chloro-2-(piperazin-1-yl)pyrimidin-4-yl)-N-ethyl-N-(2-(imidazo[1,2-a]pyridin-3-yl)propan-2-yl)azetidine-3-carboxamide] | – | 7 nM | – | 161 nM | – |
| CCC1CN(c2ncc(Cl)c(N3CC(C(=O)NC(C)(C)c4cnc5ccccn45)C3)n2)CCN1 (stereo not drawn) [Example 137, 1-(5-chloro-2-(3-ethylpiperazin-1-yl)pyrimidin-4-yl)-N-(2-(imidazo[1,2-a]pyridin-3-yl)propan-2-yl)azetidine-3-carboxamide] | – | 3 nM | – | 218 nM | – |
| C[C@@H]1CNCCN1c1ncc(Cl)c(N2CC(C(=O)N(C)C(C)(C)c3cnc4ccccn34)C2)n1 [Example 138, (R)-1-(5-chloro-2-(2-methylpiperazin-1-yl)pyrimidin-4-yl)-N-(2-(Imidazo[1,2-a]pyridin-3-yl)propan-2-yl)-N-methylazetidine-3-carboxamide] | – | 15 nM | – | 742 nM | – |
| CC(C)(NC(=O)C1CN(c2nc(N3CC4CCC(C3)N4)ncc2Cl)C1)c1cnc2ccccn12 [Example 144, 1-(2-(3,8-diazabicyclo[3.2.1]octan-3-yl)-5-chloropyrimidin-4-yl)-N-(2-(imidazo[1,2-a]pyridin-3-yl)propan-2-yl)azetidine-3-carboxamide] | – | 5 nM | – | 243 nM | – |
| CCN(C(=O)C1CN(c2nc(N3CCNC[C@@H]3C)ncc2Cl)C1)C(C)(C)c1cnc2ccccn12 [Example 145, (S)-1-(5-chloro-2-(2-methylpiperazin-1-yl)pyrimidin-4-yl)-N-ethyl-N-(2-(imidazo[1,2-a]pyridin-3-yl)propan-2-yl)azetidine-3-carboxamide] | – | 3 nM | – | 13 nM | – |
| CC[C@H]1CNCCN1c1ncc(Cl)c(N2CC(C(=O)NC(C)(C)c3cnc4ccccn34)C2)n1 [Example 147, (S)-1-(5-chloro-2-(2-ethylpiperazin-1-yl)pyrimidin-4-yl)-N-(2-(imidazo[1,2-a]pyridin-3-yl)propan-2-yl)azetidine-3-carboxamide] | – | 2 nM | – | 12 nM | – |
| CC[C@H]1CNCCN1c1ncc(Cl)c(N2CC(C(=O)N(C)C(C)(C)c3cnc4ccccn34)C2)n1 [Example 148, (S)-1-(5-chloro-2-(2-ethylpiperazin-1-yl)pyrimidin-4-yl)-N-(2-(Imidazo[1,2-a]pyridin-3-yl)propan-2-yl)-N-methylazetidine-3-carboxamide] | – | 5 nM | – | 369 nM | – |
| C[C@H]1CN(c2ncc(Cl)c(N3CC(C(=O)NC(C)(C)c4cnc5ccccn45)C3)n2)[C@@H](C)CN1 [Example 151, 1-(5-chloro-2-((2S,5S)-2,5-dimethylpiperazin-1-yl)pyrimidin-4-yl)-N-(2-(imidazo[1,2-a]pyridin-3-yl)propan-2-yl)azetidine-3-carboxamide] | – | 2 nM | – | 15 nM | – |
| C[C@@H]1CN(c2ncc(Cl)c(N3CC(C(=O)NC(C)(C)c4cnc5ccccn45)C3)n2)[C@@H](C)CN1C [Example 154, 1-(5-chloro-2-((2S,5R)-2,4,5-trimethylpiperazin-1-yl)pyrimidin-4-yl)-N-(2-(imidazo[1,2-a]pyridin-3-yl)propan-2-yl)azetidine-3-carboxamide] | – | 10 nM | – | 453 nM | – |

From patent US20240166643A1, “IMIDAZO[1,2-A]PYRIDINE COMPOUNDS AND THEIR USE IN THERAPY” (Imperial College Innovations Limited, priority 2020, published 2024)
